Assay in all cases: Kir family selectivity thallium flux assay
Type in all cases: cell-based

Assay [1] has as its target T1, Kir2.1 (Homo sapiens, UniProt P63252).
T1 construct: expressed in transfected cells
T1 sequence (P63252 1-427): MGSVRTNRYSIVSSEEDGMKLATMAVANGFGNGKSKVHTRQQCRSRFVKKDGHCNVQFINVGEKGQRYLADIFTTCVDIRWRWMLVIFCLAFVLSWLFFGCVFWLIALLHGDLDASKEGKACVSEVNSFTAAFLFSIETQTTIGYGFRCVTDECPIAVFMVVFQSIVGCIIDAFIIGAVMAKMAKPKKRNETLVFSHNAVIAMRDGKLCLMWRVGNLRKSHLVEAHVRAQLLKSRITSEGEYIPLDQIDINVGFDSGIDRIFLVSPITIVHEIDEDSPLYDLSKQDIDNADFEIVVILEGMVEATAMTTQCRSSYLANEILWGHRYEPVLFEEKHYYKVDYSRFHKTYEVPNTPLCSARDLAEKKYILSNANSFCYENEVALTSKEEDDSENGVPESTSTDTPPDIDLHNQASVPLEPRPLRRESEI
How it is done:
(§1) Thallium flux assays were conducted using the established methods. Stably transfected T-REx-HEK-293 cells expressing Kir6.2/SUR1 or Kir6.1/SUR2B were cultured overnight in polyamine-coated plates (black-walled, clear-bottomed; BD, Bedford, MA) at a density of 20,000 cells in 20 µl per well of cell culture media. The expression of Kir6.2/SUR1 or Kir6.1/SUR2B channels was induced by treating cells with 1 µg/ml tetracycline overnight. The following day, cells were rinsed with an assay buffer (Hanks’ Balanced Salt Solution supplied with 20 mM HEPES), loaded with the thallium-sensor dye Brilliant Thallos-AM AM (Ion Bioscience, San Marcos, TX) for 1 h, and then washed again with assay buffer to remove unincorporated dye. The cell plate was subsequently placed in a Panoptic Kinetic Imaging Plate Reader (Wavefront Bioscience, Franklin, TN) and imaged at a frequency of 1 Hz using 482/35 nm (excitation) and 536/40 nm (emission) filter sets. Kir6.1/SUR2B channels were activated with 10 µM pinacidil, whereas Kir6.1/SUR1 was activated with 30 µM VU0071063 [34]. To activate KATP channels independent of activators with ATP-depletion method, cells were treated with a cocktail of metabolic inhibitors (2.5 mM sodium cyanide and 20 mM 2-deoxy glucose) for 25 min before imagine. Control and test compounds diluted freshly from DMSO stocks into assay buffer were added to wells for four minutes before adding 0.5 mM chloride-free thallium stimulus buffer (Ion Bioscience) to initiate thallium flux through the expressed KATP channels. Thallium flux was recorded from all 384-wells for 2 min before terminating the experiment. […] Selectivity assays against other Kir channels were performed as described previously.
(§2) To begin elucidating the binding site location of VU0212387, VU0543336, VU0605768, and VU0544086, we evaluated the activity of the inhibitors against KATP channels composed of different Kir and SUR subunit combinations expressed in HEK293 cells. Specifically, the compounds were tested against Kir6.1/SUR1, Kir6.2/SUR1, Kir6.1/SUR2A, Kir6.2/SUR2A, Kir6.1/SUR2B, and Kir6.2/SUR2B at a dose of 3 µM. […] We expanded the selectivity analysis to include 10 other members of the Kir channel family.

Assay [2] has as its target T2, Kir7.1 (M125R) (Homo sapiens, UniProt O60928, M125R).
T2 construct: expressed in transfected cells
T2 sequence (O60928 1-360 M125R): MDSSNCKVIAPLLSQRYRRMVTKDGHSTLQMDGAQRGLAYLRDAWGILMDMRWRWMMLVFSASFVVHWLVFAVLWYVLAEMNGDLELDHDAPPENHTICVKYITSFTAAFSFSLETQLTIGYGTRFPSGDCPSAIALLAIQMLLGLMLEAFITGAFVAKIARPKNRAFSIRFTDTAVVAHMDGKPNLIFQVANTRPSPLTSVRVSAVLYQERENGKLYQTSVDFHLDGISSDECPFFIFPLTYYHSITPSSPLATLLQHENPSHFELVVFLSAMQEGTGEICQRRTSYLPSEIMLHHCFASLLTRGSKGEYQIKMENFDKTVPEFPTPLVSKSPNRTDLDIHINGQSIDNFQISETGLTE
Conditions: for pIC50: thallium flux. How it is done:
as §1, §2

Assay [3] addresses T3, Kir3.1/3.2 (Homo sapiens, UniProt P48051+P48549).
T3 construct: expressed in transfected cells
T3 sequence (P48549 1-501): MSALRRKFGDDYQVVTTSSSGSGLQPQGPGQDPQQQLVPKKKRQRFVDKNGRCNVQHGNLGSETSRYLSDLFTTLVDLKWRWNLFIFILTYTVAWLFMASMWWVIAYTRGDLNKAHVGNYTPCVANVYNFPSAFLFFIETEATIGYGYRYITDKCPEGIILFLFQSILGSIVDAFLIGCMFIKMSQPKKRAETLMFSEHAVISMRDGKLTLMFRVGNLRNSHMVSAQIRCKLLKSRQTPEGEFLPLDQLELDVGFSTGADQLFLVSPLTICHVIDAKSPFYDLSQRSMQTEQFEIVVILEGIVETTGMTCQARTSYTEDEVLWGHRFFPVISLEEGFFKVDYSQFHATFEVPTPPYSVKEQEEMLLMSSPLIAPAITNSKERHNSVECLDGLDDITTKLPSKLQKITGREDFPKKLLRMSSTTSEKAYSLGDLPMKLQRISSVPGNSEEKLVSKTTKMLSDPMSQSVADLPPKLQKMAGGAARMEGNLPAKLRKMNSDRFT
T3 sequence (P48051 1-423): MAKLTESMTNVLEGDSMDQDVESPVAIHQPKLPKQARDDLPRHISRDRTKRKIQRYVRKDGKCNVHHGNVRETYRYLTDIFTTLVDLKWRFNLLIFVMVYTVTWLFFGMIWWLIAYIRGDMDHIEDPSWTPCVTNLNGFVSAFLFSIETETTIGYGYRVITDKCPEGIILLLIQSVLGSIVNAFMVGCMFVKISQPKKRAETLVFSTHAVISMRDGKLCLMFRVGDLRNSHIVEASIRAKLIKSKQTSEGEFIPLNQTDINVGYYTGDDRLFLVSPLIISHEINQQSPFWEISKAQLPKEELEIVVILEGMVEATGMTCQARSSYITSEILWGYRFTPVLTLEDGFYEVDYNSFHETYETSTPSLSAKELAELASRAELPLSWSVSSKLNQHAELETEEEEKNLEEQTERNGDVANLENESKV
How it is done: as §1, §2

pIC50: −log10 of the molar value. Several values for one entry are separate records, joined by “and”; a condition that tells them apart may be missing. Equal entries are not always repeated.

The term pIC50 denotes the IC50 on a negative log10 scale, so that one unit is a factor of ten. By inhibition is commonly meant how much of the control response was suppressed. With `c1ccc2[nH]c(CSc3ncnc4c3oc3ccccc34)nc2c1` [VU0212387, 4-(((1 H-benzo[d]imidazol-2-yl)methyl)thio)benzofuro[3,2-d]pyrimidine], the pIC50 is less than 4.52 in assay [1]; 4.92 and 4.91 in assay [2]; less than 4.52 in assay [3]. Moreover, the inhibition at 30 µM in assay [2] (observed at 30 µM, read-out: Percent maximal inhibition of Kir7.1 (M125R)) was determined as 69%.
As to `O=C(NCC(O)(c1ccccc1)C(F)(F)F)c1ccc(OC(F)(F)F)cc1` (stereo not shown) [VU0543336, N-(3,3,3-trifluoro-2-hydroxy-2-phenylpropyl)-4-(trifluoromethoxy)benzamide], the pIC50 in assay [1], in assay [2] and in assay [3] was less than 4.52 each time.
With `O=C(NCc1cc(-c2ccncc2)n(C2CCCC2)n1)Nc1cccs1` [VU0544086, 1-((1-cyclopentyl-5-(pyridin-4-yl)-1 H-pyrazol-3-yl)methyl)-3-(thiophen-2-yl)urea], the negative-log IC50 (pIC50) in assay [1], in assay [2] and in assay [3] was less than 4.52 in each case.
In the case of `O=C1c2oc3ccccc3c(=O)c2C(c2cccc(Br)c2)N1CCO` (stereo not shown) [VU0605768, 1-(3-bromophenyl)-2-(2-hydroxyethyl)-1,2-dihydrochromeno[2,3-c]pyrrole-3,9-dione], the pIC50 in assay [1], in assay [2] and in assay [3] was less than 4.52 each time.

The values are drawn from PMC11418212, “Characterization of four structurally diverse inhibitors of SUR2-containing KATP channels” (Channels, 2024).
